Article PMC8426393, “Interactions of anti-COVID-19 drug candidates with hepatic transporters may cause liver toxicity and affect pharmacokinetics” (Scientific Reports, 2021)
Entries after “also recorded” stand apart in the source; their conditions may differ.

How the values were obtained:
ABCB1/Pgp = tested on: ABCB1/Pgp; parameters: method as in Telbisz et al., 2021; conditions: vesicular transporter assay, measured previously; ref Telbisz et al., 2021; cited from earlier work
OCT1/SLC22A1 = biological target: T1, OCT1/SLC22A1 (Homo sapiens, UniProt O15245); test: OCT1-dependent metformin uptake in OCT1-overexpressing HEK-293 cells; type: cell-based
T1 construct: expressed in transfected cells; host or cells: HEK-293 cells, lentiviral transduction
T1 sequence (O15245 1-554): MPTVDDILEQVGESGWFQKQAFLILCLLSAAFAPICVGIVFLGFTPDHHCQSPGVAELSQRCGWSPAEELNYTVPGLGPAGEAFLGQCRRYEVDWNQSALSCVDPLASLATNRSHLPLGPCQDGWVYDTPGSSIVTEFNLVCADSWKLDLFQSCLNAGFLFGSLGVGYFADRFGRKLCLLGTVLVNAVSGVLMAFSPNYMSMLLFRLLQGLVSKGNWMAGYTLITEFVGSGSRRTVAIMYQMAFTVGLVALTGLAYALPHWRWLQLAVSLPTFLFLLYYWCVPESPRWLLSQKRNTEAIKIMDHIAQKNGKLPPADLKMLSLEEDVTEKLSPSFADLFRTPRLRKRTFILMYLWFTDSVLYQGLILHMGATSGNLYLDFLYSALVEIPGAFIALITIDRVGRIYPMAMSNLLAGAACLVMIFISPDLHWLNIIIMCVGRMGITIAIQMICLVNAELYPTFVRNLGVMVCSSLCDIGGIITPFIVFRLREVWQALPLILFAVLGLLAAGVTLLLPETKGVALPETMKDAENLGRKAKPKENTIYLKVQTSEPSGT

ABCC3/MRP3 = biological target: T2, ABCC3/MRP3 (Homo sapiens, UniProt O15438); test: MRP3 vesicular transport: ATP- and benzbromarone-sensitive CDCF uptake into inverted HEK-293 membrane vesicles; type: biochemical
T2 construct: purchased Solvo Biotechnology (Budapest, Hungary); host or cells: HEK-293 cells

[1] = Kaletra 400 mg lopinavir and 100 mg ritonavir in combination; cited from earlier work
ABCC2/MRP2 = biological target: T3, ABCC2/MRP2 (Homo sapiens, UniProt Q92887); test: MRP2 vesicular transport: ATP-dependent CDCF uptake into inverted Sf9 membrane vesicles; type: biochemical; conditions: CDCF 5 µM, 37 °C, 10 min, Sf9 vesicles
T3 construct: made in house; host or cells: Sf9 insect cells (baculovirus)

MATE1/SLC47A1 = biological target: T4, MATE1/SLC47A1 (Homo sapiens, UniProt Q96FL8); test: MATE1-dependent metformin uptake in MATE1-overexpressing MDCKII cells; type: cell-based; conditions: metformin 10 µM, 10 min, 37 °C, MDCKII cells
T4 construct: expressed in transfected cells; host or cells: MDCKII cells, lentiviral transduction
T4 sequence (Q96FL8 1-570): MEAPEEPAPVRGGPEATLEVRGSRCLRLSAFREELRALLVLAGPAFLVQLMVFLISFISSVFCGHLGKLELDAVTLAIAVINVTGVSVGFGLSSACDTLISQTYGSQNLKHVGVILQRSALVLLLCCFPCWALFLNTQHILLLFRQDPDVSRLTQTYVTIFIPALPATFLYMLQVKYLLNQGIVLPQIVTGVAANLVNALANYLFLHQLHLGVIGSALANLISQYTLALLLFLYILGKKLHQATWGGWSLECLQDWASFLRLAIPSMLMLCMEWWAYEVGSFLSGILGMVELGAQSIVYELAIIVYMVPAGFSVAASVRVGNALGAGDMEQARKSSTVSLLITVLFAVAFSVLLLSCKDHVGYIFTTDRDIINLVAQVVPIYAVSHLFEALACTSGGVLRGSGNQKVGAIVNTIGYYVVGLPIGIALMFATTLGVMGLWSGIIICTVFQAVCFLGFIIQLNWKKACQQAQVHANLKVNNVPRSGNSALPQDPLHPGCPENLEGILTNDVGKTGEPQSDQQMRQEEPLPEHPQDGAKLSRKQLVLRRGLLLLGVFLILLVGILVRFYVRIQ

ABCB11/BSEP = biological target: T5, ABCB11/BSEP (Homo sapiens, UniProt O95342); test: BSEP vesicular transport: ATP- and glyburide-sensitive taurocholate uptake into inverted HEK-293 membrane vesicles; type: biochemical; conditions: taurocholate 2 µM, 37 °C, 10 min, HEK-293 vesicles
T5 construct: purchased Solvo Biotechnology (Budapest, Hungary); host or cells: HEK-293 cells

ABCG2/BCRP = tested on: ABCG2/BCRP; parameters: method as in Telbisz et al., 2021; conditions: vesicular transporter assay, measured previously; ref Telbisz et al., 2021; cited from earlier work
ABCC4/MRP4 = biological target: T6, ABCC4/MRP4 (Homo sapiens, UniProt O15439); test: MRP4 vesicular transport: ATP-dependent DHEAS uptake into inverted HEK-293 membrane vesicles; type: biochemical; conditions: DHEAS 0.5 µM, 32 °C, […], HEK-293 vesicles
T6 construct: purchased Solvo Biotechnology (Budapest, Hungary); host or cells: HEK-293 cells
T6 sequence (O15439 1-1325): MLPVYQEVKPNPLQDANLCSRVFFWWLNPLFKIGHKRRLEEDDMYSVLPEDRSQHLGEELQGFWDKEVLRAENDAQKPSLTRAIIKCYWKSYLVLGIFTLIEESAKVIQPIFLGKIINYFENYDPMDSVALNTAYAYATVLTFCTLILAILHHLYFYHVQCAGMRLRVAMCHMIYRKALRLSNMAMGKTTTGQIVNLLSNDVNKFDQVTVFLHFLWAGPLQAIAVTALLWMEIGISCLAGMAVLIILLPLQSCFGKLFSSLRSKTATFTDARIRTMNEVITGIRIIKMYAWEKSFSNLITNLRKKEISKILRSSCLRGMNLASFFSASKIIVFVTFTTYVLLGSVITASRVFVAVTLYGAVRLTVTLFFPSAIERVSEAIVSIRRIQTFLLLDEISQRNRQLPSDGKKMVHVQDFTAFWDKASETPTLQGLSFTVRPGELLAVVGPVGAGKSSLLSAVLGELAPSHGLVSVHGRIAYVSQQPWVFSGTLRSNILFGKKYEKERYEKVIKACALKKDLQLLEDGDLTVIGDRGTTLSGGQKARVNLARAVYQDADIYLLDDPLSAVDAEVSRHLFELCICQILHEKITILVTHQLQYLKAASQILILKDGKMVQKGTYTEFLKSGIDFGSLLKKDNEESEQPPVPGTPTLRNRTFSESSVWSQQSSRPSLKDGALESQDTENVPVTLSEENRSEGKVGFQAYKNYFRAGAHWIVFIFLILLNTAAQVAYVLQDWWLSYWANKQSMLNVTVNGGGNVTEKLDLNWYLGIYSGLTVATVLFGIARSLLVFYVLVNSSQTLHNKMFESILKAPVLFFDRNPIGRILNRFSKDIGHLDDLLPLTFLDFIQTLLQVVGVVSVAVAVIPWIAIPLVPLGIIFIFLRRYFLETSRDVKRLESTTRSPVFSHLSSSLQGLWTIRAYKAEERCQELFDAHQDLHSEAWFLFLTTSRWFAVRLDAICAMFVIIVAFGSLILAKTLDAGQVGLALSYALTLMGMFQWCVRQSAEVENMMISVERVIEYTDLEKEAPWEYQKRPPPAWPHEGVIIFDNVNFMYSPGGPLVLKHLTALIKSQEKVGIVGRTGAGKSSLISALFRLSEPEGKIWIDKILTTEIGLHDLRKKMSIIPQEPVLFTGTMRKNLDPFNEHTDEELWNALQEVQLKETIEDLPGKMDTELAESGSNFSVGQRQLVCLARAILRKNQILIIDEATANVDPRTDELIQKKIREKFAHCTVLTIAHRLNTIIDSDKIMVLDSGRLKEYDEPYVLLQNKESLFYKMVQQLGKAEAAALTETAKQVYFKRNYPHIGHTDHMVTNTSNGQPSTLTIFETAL

T2 sequence (O15438 whole entry): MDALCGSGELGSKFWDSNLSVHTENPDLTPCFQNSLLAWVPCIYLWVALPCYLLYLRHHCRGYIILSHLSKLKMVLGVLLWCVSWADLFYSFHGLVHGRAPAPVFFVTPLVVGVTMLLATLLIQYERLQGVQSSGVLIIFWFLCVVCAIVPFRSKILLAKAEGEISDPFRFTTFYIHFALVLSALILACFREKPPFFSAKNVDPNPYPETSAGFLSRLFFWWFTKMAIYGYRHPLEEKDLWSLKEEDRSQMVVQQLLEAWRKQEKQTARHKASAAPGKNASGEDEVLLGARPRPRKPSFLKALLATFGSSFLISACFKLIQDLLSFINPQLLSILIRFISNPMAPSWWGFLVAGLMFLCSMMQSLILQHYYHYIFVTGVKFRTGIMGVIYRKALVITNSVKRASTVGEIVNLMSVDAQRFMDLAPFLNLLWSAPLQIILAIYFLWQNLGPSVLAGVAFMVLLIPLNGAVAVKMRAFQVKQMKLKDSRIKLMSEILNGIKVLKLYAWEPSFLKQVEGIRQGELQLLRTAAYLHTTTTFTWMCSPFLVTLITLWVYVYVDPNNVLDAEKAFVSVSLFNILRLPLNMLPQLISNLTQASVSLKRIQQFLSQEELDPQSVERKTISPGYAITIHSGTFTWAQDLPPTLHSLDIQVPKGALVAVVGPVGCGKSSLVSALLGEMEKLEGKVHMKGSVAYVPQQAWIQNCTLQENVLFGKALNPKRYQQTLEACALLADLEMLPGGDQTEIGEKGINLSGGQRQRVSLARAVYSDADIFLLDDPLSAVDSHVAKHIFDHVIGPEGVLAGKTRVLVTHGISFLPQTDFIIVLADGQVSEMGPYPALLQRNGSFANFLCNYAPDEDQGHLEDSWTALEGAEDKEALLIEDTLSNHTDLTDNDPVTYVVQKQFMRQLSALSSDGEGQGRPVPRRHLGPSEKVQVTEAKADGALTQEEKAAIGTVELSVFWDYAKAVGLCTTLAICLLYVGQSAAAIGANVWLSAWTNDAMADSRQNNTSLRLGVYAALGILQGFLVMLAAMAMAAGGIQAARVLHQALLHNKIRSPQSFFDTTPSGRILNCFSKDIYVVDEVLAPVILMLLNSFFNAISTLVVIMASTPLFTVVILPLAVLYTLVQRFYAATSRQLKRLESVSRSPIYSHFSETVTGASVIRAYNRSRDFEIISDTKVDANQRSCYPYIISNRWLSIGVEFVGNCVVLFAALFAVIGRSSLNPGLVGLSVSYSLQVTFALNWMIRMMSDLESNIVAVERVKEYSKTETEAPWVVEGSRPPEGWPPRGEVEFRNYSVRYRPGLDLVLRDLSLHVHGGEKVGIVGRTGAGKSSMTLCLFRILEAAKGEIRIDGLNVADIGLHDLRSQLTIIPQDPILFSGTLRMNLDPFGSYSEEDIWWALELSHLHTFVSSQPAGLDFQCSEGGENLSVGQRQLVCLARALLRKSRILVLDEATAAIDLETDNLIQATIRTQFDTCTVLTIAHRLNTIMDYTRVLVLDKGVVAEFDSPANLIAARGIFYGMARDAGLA
T5 sequence (O95342 whole entry): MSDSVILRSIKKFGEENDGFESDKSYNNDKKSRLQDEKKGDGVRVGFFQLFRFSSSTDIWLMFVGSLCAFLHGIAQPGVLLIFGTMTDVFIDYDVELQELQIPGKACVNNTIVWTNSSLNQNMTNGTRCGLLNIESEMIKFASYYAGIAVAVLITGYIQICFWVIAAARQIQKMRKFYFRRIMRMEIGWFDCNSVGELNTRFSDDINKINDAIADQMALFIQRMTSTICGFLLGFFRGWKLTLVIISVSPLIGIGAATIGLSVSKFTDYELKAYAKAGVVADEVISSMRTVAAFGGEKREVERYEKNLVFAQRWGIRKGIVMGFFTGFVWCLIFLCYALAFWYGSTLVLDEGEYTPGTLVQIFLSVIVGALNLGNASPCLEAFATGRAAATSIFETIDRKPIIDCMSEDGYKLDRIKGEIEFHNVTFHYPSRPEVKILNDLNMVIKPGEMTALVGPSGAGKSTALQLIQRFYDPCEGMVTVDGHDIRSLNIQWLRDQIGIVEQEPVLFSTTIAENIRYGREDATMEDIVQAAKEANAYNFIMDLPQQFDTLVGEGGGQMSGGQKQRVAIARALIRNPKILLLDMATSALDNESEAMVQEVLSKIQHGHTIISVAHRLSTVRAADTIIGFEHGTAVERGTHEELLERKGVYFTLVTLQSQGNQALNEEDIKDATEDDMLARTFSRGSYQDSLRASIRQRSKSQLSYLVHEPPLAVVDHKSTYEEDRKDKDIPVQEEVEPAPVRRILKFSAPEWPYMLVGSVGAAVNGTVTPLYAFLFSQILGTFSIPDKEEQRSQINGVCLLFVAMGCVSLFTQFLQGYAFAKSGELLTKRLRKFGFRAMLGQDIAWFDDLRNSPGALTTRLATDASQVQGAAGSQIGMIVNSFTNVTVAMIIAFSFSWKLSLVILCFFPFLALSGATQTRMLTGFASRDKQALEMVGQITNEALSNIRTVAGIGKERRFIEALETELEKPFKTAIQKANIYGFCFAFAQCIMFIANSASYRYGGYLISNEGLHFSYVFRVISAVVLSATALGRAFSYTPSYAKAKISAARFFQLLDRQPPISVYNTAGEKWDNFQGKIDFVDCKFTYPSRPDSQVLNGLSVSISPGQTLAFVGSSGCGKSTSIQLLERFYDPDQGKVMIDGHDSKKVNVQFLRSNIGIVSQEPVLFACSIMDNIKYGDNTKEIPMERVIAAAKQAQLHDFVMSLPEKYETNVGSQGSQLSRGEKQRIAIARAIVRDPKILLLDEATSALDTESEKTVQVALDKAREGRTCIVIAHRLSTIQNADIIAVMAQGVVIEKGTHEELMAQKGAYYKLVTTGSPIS
T3 sequence (Q92887 whole entry): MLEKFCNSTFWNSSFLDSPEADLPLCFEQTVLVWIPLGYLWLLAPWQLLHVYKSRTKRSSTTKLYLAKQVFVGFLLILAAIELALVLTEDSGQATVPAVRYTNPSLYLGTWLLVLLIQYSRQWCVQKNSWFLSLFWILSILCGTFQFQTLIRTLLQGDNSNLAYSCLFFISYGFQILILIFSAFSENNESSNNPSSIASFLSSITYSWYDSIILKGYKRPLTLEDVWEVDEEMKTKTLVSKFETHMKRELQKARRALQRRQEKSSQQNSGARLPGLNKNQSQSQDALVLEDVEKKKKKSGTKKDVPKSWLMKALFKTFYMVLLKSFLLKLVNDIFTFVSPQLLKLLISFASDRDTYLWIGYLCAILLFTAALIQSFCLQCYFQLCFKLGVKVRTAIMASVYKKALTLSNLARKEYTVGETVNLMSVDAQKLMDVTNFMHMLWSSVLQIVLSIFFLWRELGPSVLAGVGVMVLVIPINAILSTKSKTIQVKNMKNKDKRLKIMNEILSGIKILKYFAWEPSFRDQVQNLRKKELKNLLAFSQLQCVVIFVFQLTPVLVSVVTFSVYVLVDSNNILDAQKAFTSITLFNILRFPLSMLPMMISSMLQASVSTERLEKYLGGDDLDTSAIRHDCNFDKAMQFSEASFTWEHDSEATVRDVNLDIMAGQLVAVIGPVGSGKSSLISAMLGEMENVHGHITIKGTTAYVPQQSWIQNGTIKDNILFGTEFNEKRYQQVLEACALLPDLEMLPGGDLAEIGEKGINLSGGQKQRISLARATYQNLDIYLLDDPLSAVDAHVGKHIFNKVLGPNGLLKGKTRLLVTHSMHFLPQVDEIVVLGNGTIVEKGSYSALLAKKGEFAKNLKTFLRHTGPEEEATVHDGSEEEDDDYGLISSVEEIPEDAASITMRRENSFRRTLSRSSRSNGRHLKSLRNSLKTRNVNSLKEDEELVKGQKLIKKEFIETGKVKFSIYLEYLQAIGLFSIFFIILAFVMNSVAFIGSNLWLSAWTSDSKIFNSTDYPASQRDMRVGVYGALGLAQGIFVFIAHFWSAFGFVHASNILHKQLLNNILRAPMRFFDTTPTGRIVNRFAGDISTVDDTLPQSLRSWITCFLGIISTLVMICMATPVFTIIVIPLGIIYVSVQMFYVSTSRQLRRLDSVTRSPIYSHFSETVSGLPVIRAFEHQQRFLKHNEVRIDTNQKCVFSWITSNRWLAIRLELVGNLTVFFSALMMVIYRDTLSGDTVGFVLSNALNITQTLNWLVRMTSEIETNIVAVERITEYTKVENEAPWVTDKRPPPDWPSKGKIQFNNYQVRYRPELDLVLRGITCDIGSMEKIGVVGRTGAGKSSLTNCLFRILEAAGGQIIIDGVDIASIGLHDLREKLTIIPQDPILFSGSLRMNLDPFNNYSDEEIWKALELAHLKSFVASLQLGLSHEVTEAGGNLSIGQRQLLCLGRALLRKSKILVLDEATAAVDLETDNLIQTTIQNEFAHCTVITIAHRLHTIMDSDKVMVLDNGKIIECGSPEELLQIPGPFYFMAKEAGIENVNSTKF

CC(C)c1nc(CN(C)C(=O)N[C@H](C(=O)N[C@@H](Cc2ccccc2)C[C@H](O)[C@H](Cc2ccccc2)NC(=O)OCc2cncs2)C(C)C)cs1 [RIT, ritonavir]
ABCB1/Pgp Type of effect (ABCB1/Pgp): inh
OCT1/SLC22A1 Type of effect (OCT1/SLC22A1; metformin 10 µM, 5 min, 37 °C, HEK-293 cells): strong inhibitory effect and inh
concentration of strong inhibitory effect on OCT1 (OCT1/SLC22A1; metformin uptake): below 10 µM
ABCC3/MRP3 Type of effect (ABCC3/MRP3; CDCF 5 µM, 37 °C, 10 min, HEK-293 vesicles): inh
concentration at which MRP3 transport is inhibited (ABCC3/MRP3; CDCF uptake): lower than 10 µM
peak plasma concentrations in vivo [1]: 1 to 1.73 µM
ABCC2/MRP2 Type of effect (ABCC2/MRP2): did not inhibit but rather increased the probe substrate transport at high concentrations; also recorded: Increase
MATE1/SLC47A1 Type of effect (MATE1/SLC47A1): strong inhibitory action and inh
ABCB11/BSEP Type of effect (ABCB11/BSEP): strongly inhibited TC transport at low concentrations and inh
ABCG2/BCRP type of effect (ABCG2/BCRP): inh
ABCC4/MRP4 Type of effect (ABCC4/MRP4): No effect
